Assay in all cases: ≥ marks a high value that may be exact or a test limit, other limits are often not marked, values filed in µg/mL are converted to µM
In assay [1] the test system is Micrococcus luteus ATCC 10240.
In assay [2] the test system is Escherichia coli BL21AI.
In assay [3] the test system is Pseudomonas aeruginosa ATCC 27853.
For assay [4], the system named is Klebsiella pneumoniae ATCC 700603.
Assay [5] has as its system Staphylococcus aureus ATCC 29213.
In assay [6] the test system is Staphylococcus aureus ATCC 33591.
The subject of assay [7] is Staphylococcus aureus ATCC 700699.
Assay [8] concerns Escherichia coli ATCC 25922.
Assay [9] has as its system Staphylococcus epidermidis.
In assay [10] the test system is Bacillus subtilis.
Assay [11] relates to Klebsiella pneumoniae.
Assay [12] relates to Pseudomonas aeruginosa.
Assay [13] concerns Micrococcus luteus.
In assay [14] the test system is Shigella dysenteriae.
Assay [15] has as its system Escherichia coli.
In assay [16] the test system is Salmonella typhimurium.
Assay [17] concerns Proteus mirabilis.
In assay [18] the test system is Staphylococcus aureus.
The subject of assay [19] is Serratia marcescens.
In assay [20] the test system is Saccharomyces cerevisiae.
Assay [21] deals with Candida albicans.
Assay [22] concerns Escherichia coli UB1005.
The subject of assay [23] is Staphylococcus aureus ATCC 25923.
Assay [24] has as its system Pseudomonas aeruginosa PAO1.

In brackets after ≈: the same amount, converted by molar mass.

`CC[C@H](C)[C@H](NC(=O)[C@H](CCCN=C(N)N)NC(=O)[C@H](CCCN=C(N)N)NC(=O)[C@@H]1CCCN1C(=O)[C@@H]1CCCN1C(=O)[C@H](CCCN=C(N)N)NC(=O)[C@@H]1CCCN1C(=O)[C@H](CCCN=C(N)N)NC(=O)[C@@H]1CCCN1C(=O)[C@H](CC(C)C)NC(=O)[C@H](Cc1ccc(O)cc1)NC(=O)[C@@H]1CCCN1C(=O)[C@@H]1CCCN1C(=O)[C@H](CCCCN)NC(=O)[C@H](CC(=O)O)NC(=O)[C@@H](N)C(C)C)C(=O)N[C@@H](Cc1ccc(O)cc1)C(=O)N[C@@H](CC(N)=O)C(=O)N[C@@H](CC(N)=O)C(=O)N[C@@H](CCCN=C(N)N)C(N)=O` [VDKPPYLPRPRPPRRIYNNR]: the MIC in assay [1] and in assay [2] was 3.19 µM (≈ 8 µg/mL) throughout.
Take `CC[C@H](C)[C@H](NC(=O)[C@H](CC(=O)O)NC(=O)[C@H](CCCCN)NC(=O)[C@H](C)NC(=O)[C@H](C)NC(=O)CNC(=O)[C@H](CCCCN)NC(=O)[C@H](CC(C)C)NC(=O)[C@@H](NC(=O)[C@H](CC(=O)O)NC(=O)[C@@H](NC(=O)[C@@H](NC(=O)CN)C(C)C)C(C)C)[C@@H](C)CC)C(=O)N[C@@H](C)C(=O)NCC(=O)N[C@@H](Cc1cnc[nH]1)C(=O)N[C@@H](CC(C)C)C(=O)N[C@@H](C)C(=O)N[C@@H](CO)C(=O)N[C@@H](CCCCN)C(=O)N[C@H](C(=O)N[C@@H](CCSC)C(=O)N[C@@H](CC(N)=O)C(=O)N[C@@H](CCCCN)C(=O)N[C@@H](C)C(N)=O)C(C)C` [GVVDILKGAAKDIAGHLASKVMNKA]: the MIC in assay [3] is above 100 µM; in [4] it was above 100 µM; in assay [5], above 100 µM; in assay [6], at least 100 µM; in assay [7], at least 100 µM; in assay [8], above 100 µM.
For the molecule `CC[C@H](C)[C@H](NC(=O)[C@H](CC(=O)O)NC(=O)[C@H](CCCCN)NC(=O)[C@H](C)NC(=O)[C@H](C)NC(=O)CNC(=O)[C@H](CCCCN)NC(=O)[C@H](CC(C)C)NC(=O)[C@@H](NC(=O)[C@H](CC(=O)O)NC(=O)[C@@H](NC(=O)[C@@H](NC(=O)CN)C(C)C)C(C)C)[C@@H](C)CC)C(=O)N[C@@H](C)C(=O)NCC(=O)N[C@@H](Cc1cnc[nH]1)C(=O)N[C@@H](CC(C)C)C(=O)N[C@@H](CC(C)C)C(=O)N[C@@H](CO)C(=O)N[C@@H](CCCCN)C(=O)N[C@H](C(=O)N[C@@H](CCSC)C(=O)N[C@@H](CC(N)=O)C(=O)N[C@@H](CCCCN)C(=O)N[C@@H](CC(C)C)C(N)=O)C(C)C` [GVVDILKGAAKDIAGHLLSKVMNKL], the MIC in assay [3] is 100 µM (≈ 259 µg/mL); in assay [4] it was 50 µM (≈ 130 µg/mL); in assay [5], 100 µM (≈ 259 µg/mL); in [6] it was 25 µM (≈ 64.8 µg/mL); in assay [7], at least 100 µM; in assay [8], 12.5 µM (≈ 32.4 µg/mL).
On to `CC[C@H](C)[C@H](NC(=O)[C@@H]1CCCN1C(=O)[C@H](CCCN=C(N)N)NC(=O)[C@@H]1CCCN1C(=O)[C@H](Cc1cnc[nH]1)NC(=O)[C@H](CO)NC(=O)[C@@H](NC(=O)[C@@H]1CCCN1C(=O)[C@H](CCCN=C(N)N)NC(=O)[C@@H]1CCCN1C(=O)[C@H](CO)NC(=O)[C@H](Cc1ccc(O)cc1)NC(=O)[C@@H]1CCCN1C(=O)[C@H](CCCN=C(N)N)NC(=O)[C@@H]1CCCN1C(=O)[C@H](CCCCN)NC(=O)CN)[C@@H](C)O)C(=O)N[C@@H](CCCN=C(N)N)C(N)=O` [GKPRPYSPRPTSHPRPIR], for which the minimum inhibitory concentration (MIC) in assay [1] is 3.81 µM (≈ 8 µg/mL); in assay [2] it was at least 61 µM.
Taken in the same sequence, the figures for `CC(C)C[C@H](NC(=O)[C@H](CCCN=C(N)N)NC(=O)[C@@H]1CCCN1C(=O)[C@H](Cc1cnc[nH]1)NC(=O)[C@@H]1CCCN1C(=O)[C@@H](NC(=O)[C@@H]1CCCN1C(=O)[C@H](CCCN=C(N)N)NC(=O)[C@@H]1CCCN1C(=O)[C@H](CO)NC(=O)[C@H](Cc1ccc(O)cc1)NC(=O)[C@@H]1CCCN1C(=O)[C@H](CCCN=C(N)N)NC(=O)[C@@H]1CCCN1C(=O)[C@H](CCCCN)NC(=O)CN)[C@@H](C)O)C(N)=O` [GKPRPYSPRPTPHPRL] were 2.15 µM (≈ 4 µg/mL) and 8.62 µM (≈ 16 µg/mL).
For `CC(C)C[C@H](NC(=O)[C@H](C)NC(=O)CNC(=O)[C@H](CC(C)C)NC(=O)[C@@H](N)Cc1ccccc1)C(=O)N[C@@H](Cc1ccccc1)C(=O)N[C@@H](CCCCN)C(=O)N[C@@H](Cc1c[nH]c2ccccc12)C(=O)N[C@@H](C)C(=O)N[C@@H](CO)C(=O)N[C@@H](CCCCN)C(=O)O` [FLGALFKWASK], the MIC is 19.7 µM (≈ 25 µg/mL) in [9]; 9.86 µM (≈ 12.5 µg/mL) in [10]; 9.86 µM (≈ 12.5 µg/mL) in assay [11]; 158 µM (≈ 200 µg/mL) in [12]; at least 39.4 µM in assay [13]; 19.7 µM (≈ 25 µg/mL) in [14]. Also, the MIC in [15] was 19.7 µM (≈ 25 µg/mL); in [16], at least 78.9 µM; in assay [17], at least 158 µM; in assay [18], 9.86 µM (≈ 12.5 µg/mL).
Turning to `CC[C@H](C)[C@H](NC(=O)[C@H](CC(=O)O)NC(=O)[C@H](CCCCN)NC(=O)[C@H](C)NC(=O)[C@H](C)NC(=O)CNC(=O)[C@H](CCCCN)NC(=O)[C@H](CC(C)C)NC(=O)[C@@H](NC(=O)[C@H](CC(=O)O)NC(=O)[C@@H](NC(=O)[C@@H](NC(=O)CN)C(C)C)C(C)C)[C@@H](C)CC)C(=O)N[C@@H](C)C(=O)NCC(=O)N[C@@H](Cc1cnc[nH]1)C(=O)N[C@@H](CC(C)C)C(=O)N[C@@H](C)C(=O)N[C@@H](CO)C(=O)N[C@@H](CCCCN)C(=O)N[C@H](C(=O)N[C@@H](CCSC)C(=O)N[C@@H](C)C(=O)N[C@@H](CCCCN)C(=O)N[C@@H](CC(C)C)C(N)=O)C(C)C` [GVVDILKGAAKDIAGHLASKVMAKL], the MIC in assay [3] was above 100 µM; in [4] it was 100 µM (≈ 251 µg/mL); in assay [5] it was above 100 µM; in assay [6] it was at least 100 µM; in assay [7] it was at least 100 µM; in [8], 50 µM (≈ 125 µg/mL).
As for `CC[C@H](C)[C@H](NC(=O)CN)C(=O)N[C@@H](CC(C)C)C(=O)N[C@@H](CC(=O)O)C(=O)N[C@H](C(=O)N[C@@H](CC(C)C)C(=O)N[C@@H](CCCCN)C(=O)N[C@@H](CCC(N)=O)C(=O)N[C@@H](Cc1ccccc1)C(=O)N[C@@H](C)C(=O)N[C@@H](CCCCN)C(=O)NCC(=O)N[C@H](C(=O)NCC(=O)N[C@@H](CCCCN)C(=O)N[C@@H](CC(=O)O)C(=O)N[C@@H](CC(C)C)C(=O)N[C@H](C(=O)N[C@@H](CCCCN)C(=O)NCC(=O)N[C@@H](C)C(=O)N[C@@H](C)C(=O)N[C@@H](CCC(N)=O)C(=O)NCC(=O)N[C@H](C(=O)N[C@@H](CC(C)C)C(=O)O)C(C)C)C(C)C)C(C)C)[C@@H](C)O` [GILDTLKQFAKGVGKDLVKGAAQGVL], the minimum inhibitory concentration (MIC) in assay [9] was 28.5 µM (≈ 75 µg/mL); in assay [19] it was at least 38.1 µM; in [10], 19 µM (≈ 50 µg/mL); in assay [12], 19 µM (≈ 50 µg/mL); in assay [20] it was 9.52 µM (≈ 25 µg/mL); in assay [13] it was 0.952 µM (≈ 2.5 µg/mL). In addition, the MIC is 9.52 µM (≈ 25 µg/mL) in assay [14]; 9.52 µM (≈ 25 µg/mL) in assay [15]; 28.5 µM (≈ 75 µg/mL) in assay [16]; above 38.1 µM in [21]; 19 µM (≈ 50 µg/mL) in assay [17].
As for `CC[C@H](C)[C@H](NC(=O)[C@H](CCCN=C(N)N)NC(=O)[C@H](CCCN=C(N)N)NC(=O)[C@@H]1CCCN1C(=O)[C@@H]1CCCN1C(=O)[C@H](CCCN=C(N)N)NC(=O)[C@@H]1CCCN1C(=O)[C@H](CCCN=C(N)N)NC(=O)[C@@H]1CCCN1C(=O)[C@H](CC(C)C)NC(=O)[C@H](Cc1ccc(O)cc1)NC(=O)[C@@H]1CCCN1C(=O)[C@@H]1CCCN1C(=O)[C@H](CCCCN)NC(=O)[C@H](CC(=O)O)NC(=O)[C@@H](N)C(C)C)C(=O)N[C@@H](Cc1ccc(O)cc1)C(=O)N[C@@H](CC(N)=O)C(=O)N[C@@H](Cc1cnc[nH]1)C(N)=O` [VDKPPYLPRPRPPRRIYNH], the MIC in assay [22] was 2.11 µM (≈ 5 µg/mL); in assay [1], 6.75 µM (≈ 16 µg/mL); in assay [23], 38.2 µM (≈ 90.5 µg/mL); in assay [24], 54 µM (≈ 128 µg/mL); in [2], 6.75 µM (≈ 16 µg/mL).

As usually defined, the MIC is the lowest concentration that inhibits growth of the organism. The low end stands for a more susceptible organism, the high end for a less susceptible organism.

The values are drawn from DBAASP.
